19 molecules from patent publication US7276631B2, “Cyclopentylamine and cyclohexylamine derivatives as NK-1/SSRI antagonists” (Bristol-Myers Squibb Company, priority 2004, dated 2007) can be followed below.

A word on the pIC50: it is the negative decadic logarithm of the IC50, by convention in mol/L.

Experiment [1] concerns the target T1, neurokinin-1 (NK-1) receptor (Homo sapiens, UniProt P25103).
T1 construct: a human glioblastoma-astrocytoma cell line that endogenously express the neurokinin-1 (NK-1) receptor; endogenous in cells; host or cells: U373 human glioblastoma-astrocytoma cells (membranes)
In words: NK-1 binding (competition with [125I] Substance P, U373 cell membranes). Particulars: [125I] Substance P displacement. How it is done: U373 cells, a human glioblastoma-astrocytoma cell line that endogenously express the neurokinin-1 (NK-1) receptor, were grown in a monolayer culture at 37° C. in 5% CO2 and fed with Minimum Essential Medium (MEM) supplemented with 10% fetal bovine serum. Membranes were prepared as follows: Cells were washed twice with ice-cold phosphate-buffered saline (pH 7.4) and then incubated for 5 to 10 minutes with ice-cold 10 mM Tris buffer (pH 7.4) containing 5 mM EDTA. Cells were removed from plates, homogenized, and centrifuged at 32,000×g for 20 minutes. The resulting supernatant was discarded, and the pellet resuspended by homogenization in 50 mM Tris buffer (pH 7.4) containing 1 mM EDTA and centrifuged at 32,000×g for 20 minutes. The resulting supernatant was discarded, and the pellet resuspended by homogenization in NK-1 binding assay buffer (50 mM Tris-HCL (pH 7.4), 3 mM MnCl2, 200 μg/ml BSA, 5 μg/ml chymostatin, 40 μg/ml bacitracin and 4 μg/ml leupeptin).
On the day of an experiment the membrane preparation was thawed, homogenized and diluted with NK-1 binding assay buffer to the appropriate concentration. Competition binding assays were performed in 96 well plate format by incubating membranes (5-10 ug/well) with Bolton Hunter labeled [^125I] Substance P, at a concentration of […], and concentrations of drugs ranging from 10000 to 0.01 nM. Samples were incubated for 30 min at 20° C. then filtered through GF/B glass fiber filters (pretreated with 1% polyethyleneimine and 0.3% Triton X-100) using a Brandel cell harvester. The filters were then washed with 10 ml ice cold 50 mM Tris-HCL (pH 7.4) containing 3 mM MgCl2. Non-specific was defined in the presence of 2 μM L-733,060 (a non-peptide NK-1 antagonist). Amount of radioligand bound in the presence and absence of competitor was analyzed by plotting (−)log drug concentration versus the amount of radioligand specifically bound. The midpoint of the displacement curve (IC50, nM), signifies the potency. Ki values were calculated using the method of Cheng and Prusoff [Cheng, Y.-C. and Prusoff, W. H., Biochemical Pharmacology, Vol. 22, pp. 3099-3108, Pergamon Press (1973)].

The target in experiment [2] is T2, human serotonin transporters (Homo sapiens, UniProt P31645).
T2 construct: expressed in transfected cells; host or cells: HEK-293 cells stably expressing hSERT (membranes)
In words: Serotonin transporter binding assay ([3H]-citalopram, HEK-hSERT cell membranes). Conditions: [3H]-citalopram displacement, read-out: SERT IC50. How it is done:
HEK-293 cells that stably express human serotonin transporters (HEK-hSERT cells) were grown at 37° C. in 5% CO2 as a monolayer in medium consisting of EMEM supplemented with 10% fetal bovine serum and G418 sulfate (500 μg/ml). To prepare membranes for radioligand binding experiments, cells were rinsed twice with phosphate-buffered saline (138 mM NaCl, 4.1 mM KCl, 5.1 mM Na2PO4, 1.5 mM […], 11.1 mM glucose, pH 7.4). Cells were transferred from plates to polypropylene tubes (16×100 mm), centrifuged at 1,200×g for 5 min and were frozen at −80° C. until assay. Following centrifugation, pellets were resuspended by homogenization in buffer consisting of 50 mM Tris (pH 7.7 at 25° C.), 120 mM NaCl and 5 mM KCl and then centrifuged at 32,000×g for 10 min. Following centrifugation, supernatants were discarded and pellets were resuspended in buffer consisting of 50 mM Tris (pH 7.4 at 25° C.), 150 mM NaCl and 5 mM KCl. Membrane homogenates (200 μl/plate) were incubated with 1 nM [^3H]-citalopram (specific activity=85 Ci/mmol) and increasing concentrations of test compounds for 1 hr at 25° C. in a total volume of 250 μl. The assay buffer consisted of 50 mM Tris (pH 7.4 at 25° C.), 120 mM NaCl and 5 mM KCl (pH 7.4 with conc. HCl). Plates were incubated for 1 hr at 25° C., then filtered through 0.5% PEI treated Whatman GF/B filters using a Brandel cell harvester. Filters were washed three times with 3 ml of ice-cold tris wash buffer. Non-specific binding was defined with 10 μM fluoxetine. Amount of radioligand bound in the presence and absence of competitor was analyzed by plotting (−)log drug concentration versus the amount of radioligand specifically bound. The midpoint of the displacement curve (IC50, nM), signifies the potency. Ki values were calculated using the method of Cheng and Prusoff [Cheng, Y.-C. and Prusoff, W. H., Biochemical Pharmacology, Vol. 22, pp. 3099-3108, Pergamon Press (1973)].

Molecules are shown by their SMILES. pIC50: −log10 of the molar value.

T2 sequence (P31645 whole entry): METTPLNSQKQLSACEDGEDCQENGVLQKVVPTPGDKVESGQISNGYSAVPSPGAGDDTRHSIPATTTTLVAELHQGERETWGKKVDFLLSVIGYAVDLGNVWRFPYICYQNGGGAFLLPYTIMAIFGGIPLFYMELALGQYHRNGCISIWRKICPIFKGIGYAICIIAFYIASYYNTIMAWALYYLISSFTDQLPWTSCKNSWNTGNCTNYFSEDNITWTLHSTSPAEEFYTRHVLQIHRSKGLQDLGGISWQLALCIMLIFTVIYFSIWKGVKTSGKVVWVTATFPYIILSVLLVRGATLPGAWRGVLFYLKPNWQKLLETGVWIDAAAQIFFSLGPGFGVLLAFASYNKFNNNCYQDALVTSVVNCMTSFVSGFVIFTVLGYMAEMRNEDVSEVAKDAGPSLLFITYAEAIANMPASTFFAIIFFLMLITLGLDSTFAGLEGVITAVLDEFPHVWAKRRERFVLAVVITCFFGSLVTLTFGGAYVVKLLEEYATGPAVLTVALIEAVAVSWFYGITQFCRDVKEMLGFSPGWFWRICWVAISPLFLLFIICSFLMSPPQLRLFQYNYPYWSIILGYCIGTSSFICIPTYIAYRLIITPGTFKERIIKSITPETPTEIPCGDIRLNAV
T1 sequence (P25103 whole entry): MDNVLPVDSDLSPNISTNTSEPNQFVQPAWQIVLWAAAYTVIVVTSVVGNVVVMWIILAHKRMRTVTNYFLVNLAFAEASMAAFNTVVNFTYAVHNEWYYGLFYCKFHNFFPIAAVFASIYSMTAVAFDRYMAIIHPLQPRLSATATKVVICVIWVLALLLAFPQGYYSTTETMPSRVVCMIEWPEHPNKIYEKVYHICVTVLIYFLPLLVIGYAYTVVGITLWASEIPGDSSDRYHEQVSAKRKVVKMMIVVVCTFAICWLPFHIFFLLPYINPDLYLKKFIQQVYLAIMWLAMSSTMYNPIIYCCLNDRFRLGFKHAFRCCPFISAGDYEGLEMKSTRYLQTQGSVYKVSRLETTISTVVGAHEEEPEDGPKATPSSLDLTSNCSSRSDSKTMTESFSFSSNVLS

For the molecule `FC(F)(F)c1cc(COCC2(c3ccccc3)CCC(N3CCCCC3)C2)cc(C(F)(F)F)c1` (stereo not drawn) [Example 1, 1-(3-((3,5-Bis(trifluoromethyl)benzyloxy)methyl)-3-phenylcyclopentyl)piperidine], the pIC50 in experiment [1] was greater than 7.70.

The molecule `FC(F)(F)c1cc(COCC2(c3ccccc3)CCC(N3CCCC3)C2)cc(C(F)(F)F)c1` (stereo not drawn) [Example 2, 1-(3-((3,5-Bis(trifluoromethyl)benzyloxy)methyl)-3-phenylcyclopentyl)pyrrolidine] showed a pIC50 in experiment [1] greater than 7.70.

`FC(F)(F)c1cc(COCC2(c3ccccc3)CCC(N3CCOCC3)C2)cc(C(F)(F)F)c1` (stereo not drawn) [Example 3, 4-(3-((3,5-bis(trifluoromethyl)benzyloxy)methyl)-3-phenylcyclopentyl)morpholine] had a pIC50 in experiment [1] of 7.00 to 7.70.

Regarding `FC(F)(F)c1cc(COCC2(c3ccccc3)CCC(NC3CC3)C2)cc(C(F)(F)F)c1` (stereo not drawn) [Example 4, 3-((3,5-Bis(trifluoromethyl)benzyloxy)methyl)-N-cyclopropyl-3-phenylcyclopentanamine], in experiment [1], the negative-log IC50 (pIC50) was greater than 7.70.

Molecule `COCCN(C)C1CCC(COCc2cc(C(F)(F)F)cc(C(F)(F)F)c2)(c2ccccc2)C1` (stereo not drawn) [Example 5, 3-((3,5-bis(trifluoromethyl)benzyloxy)methyl)-N-(2-methoxyethyl)-N-methyl-3-phenylcyclopentanamine] showed a pIC50 in experiment [1] greater than 7.70.

Take `CN(C)C1CCC(COCc2cc(C(F)(F)F)cc(C(F)(F)F)c2)(c2ccccc2)C1` (stereo not drawn) [Example 6, 3-((3,5-bis(trifluoromethyl)benzyloxy)methyl)-N,N-dimethyl-3-phenylcyclopentanamine]: the pIC50 in experiment [1] was greater than 7.70; in experiment [2], 7.00 to 7.70.

Regarding `N[C@H]1CC[C@](COCc2cc(C(F)(F)F)cc(C(F)(F)F)c2)(c2ccccc2)C1` [Example 7, (1S,3R)-3-((3,5-bis(trifluoromethyl)benzyloxy)methyl)-3-phenylcyclopentanamine], the pIC50 in experiment [1] is greater than 7.70; in experiment [2], 7.00 to 7.70.

As for `N[C@@H]1CC[C@@](COCc2cc(C(F)(F)F)cc(C(F)(F)F)c2)(c2ccccc2)C1` [Example 8, (1R,3S)-3-((3,5-bis(trifluoromethyl)benzyloxy)methyl)-3-phenylcyclopentanamine], the figures for the pIC50 in experiment [1] and in experiment [2] were greater than 7.70 and 6.52 to 7.00, respectively.

Consider `N[C@@H]1CC[C@](COCc2cc(C(F)(F)F)cc(C(F)(F)F)c2)(c2ccccc2)C1` [Example 9, (1R,3R)-3-((3,5-bis(trifluoromethyl)benzyloxy)methyl)-3-phenylcyclopentanamine], for which the pIC50 was greater than 7.70 in experiment [1] and 7.00 to 7.70 in experiment [2].

Consider `N[C@H]1CC[C@@](COCc2cc(C(F)(F)F)cc(C(F)(F)F)c2)(c2ccccc2)C1` [Example 10, (1S,3S)-3-((3,5-bis(trifluoromethyl)benzyloxy)methyl)-3-phenylcyclopentanamine], for which the pIC50 in experiment [1] and in experiment [2] was greater than 7.70 throughout.

As for `CNC1CCCC(COCc2cc(C(F)(F)F)cc(C(F)(F)F)c2)(c2ccccc2)C1` (stereo not drawn) [Example 11, 3-((3,5-bis(trifluoromethyl)benzyloxy)methyl)-N-methyl-3-phenylcyclohexanamine], the negative logarithm of the IC50 (pIC50) in experiment [1] was greater than 7.70; in experiment [2], 6.52 to 7.00.

In the case of `CN(C)C1CCCC(COCc2cc(C(F)(F)F)cc(C(F)(F)F)c2)(c2ccccc2)C1` (stereo not drawn) [Example 12, 3-((3,5-bis(trifluoromethyl)benzyloxy)methyl)-N,N-dimethyl-3-phenylcyclohexanamine], the pIC50 in experiment [1] is 6.52 to 7.00.

Consider `CCN(CC)C1CCCC(COCc2cc(C(F)(F)F)cc(C(F)(F)F)c2)(c2ccccc2)C1` (stereo not drawn) [Example 13, 3-((3,5-bis(trifluoromethyl)benzyloxy)methyl)-N,N-diethyl-3-phenylcyclohexanamine], for which the pIC50 was 7.00 to 7.70 in experiment [1] and 6.52 to 7.00 in experiment [2].

As for `CCNC1CCCC(COCc2cc(C(F)(F)F)cc(C(F)(F)F)c2)(c2ccccc2)C1` (stereo not drawn) [Example 14, 3-((3,5-bis(trifluoromethyl)benzyloxy)methyl)-N-ethyl-3-phenylcyclohexanamine], the pIC50 in experiment [1] was greater than 7.70; in experiment [2] it was 6.52 to 7.00.

With `FC(F)(F)c1cc(COCC2(c3ccccc3)CCCC(NC3CC3)C2)cc(C(F)(F)F)c1` (stereo not drawn) [Example 15, 3-((3,5-bis(trifluoromethyl)benzyloxy)methyl)-N-cyclopropyl-3-phenylcyclohexanamine], the pIC50 in experiment [1] is 7.00 to 7.70.

In experiment [1], `FC(F)(F)c1cc(COCC2(c3ccccc3)CCCC(N3CCOCC3)C2)cc(C(F)(F)F)c1` (stereo not drawn) [Example 16, 4-(3-((3,5-bis(trifluoromethyl)benzyloxy)methyl)-3-phenylcyclohexyl)morpholine] showed a pIC50 of 6.52 to 7.00.

In the case of `FC(F)(F)c1cc(COCC2(c3ccccc3)CCCC(N3CCCC3)C2)cc(C(F)(F)F)c1` (stereo not drawn) [Example 17, 1-(3-((3,5-bis(trifluoromethyl)benzyloxy)methyl)-3-phenylcyclohexyl)pyrrolidine], in experiment [1], the pIC50 is 6.52 to 7.00.

In turn, `FC(F)(F)c1cc(COCC2(c3ccccc3)CCCC(N3CCCCC3)C2)cc(C(F)(F)F)c1` (stereo not drawn) [Example 18, 1-(3-((3,5-bis(trifluoromethyl)benzyloxy)methyl)-3-phenylcyclohexyl)piperidine] gave a pIC50 in experiment [1] of 7.00 to 7.70.

`CN1CCN(C2CCCC(COCc3cc(C(F)(F)F)cc(C(F)(F)F)c3)(c3ccccc3)C2)CC1` (stereo not drawn) [Example 19, 1-(3-((3,5-bis(trifluoromethyl)benzyloxy)methyl)-3-phenylcyclohexyl)-4-methylpiperazine] gave a pIC50 in experiment [1] of 6.52 to 7.00.
